Laboratory results published in patent US6046218A, “Pyridine derivative and medicament containing the same as an effective ingredient” (SS Pharmaceutical Co., Ltd., priority 1996, dated 2000).
Structures can show the parent of a compound that is named as a salt.

Columns and labels:
Assay type in all cases: cell-based
IL-5 production = test: Test 3: inhibition of IL-5 production in human PBMC stimulated with ConA; settings: 10^-6 M, 10 μg/ml ConA, 48 hours, read-out: Inhibition rate of IL-5 production
Procedure: Test 3: Test on the inhibition of IL-5 production
The peripheral blood was collected from a normal volunteer and peripheral blood mononuclear cells (PBMC) of the human peripheral blood were separated therefrom by the specific gravity centrifugation method. They were suspended in an AIM-V medium and their cell count was adjusted. To individual wells of a 96-well incubation plate, 1×10^6 cells/ml of PBMC were poured, followed by the addition of a stimulator (10 μg/ml of ConA) and a medicament. The resulting mixture was incubated in 5% CO2 at 37° C. for 48 hours. After incubation, 50 μl of the supernatant were collected and subjected to measurement by a human IL-5 EIA kit (BIO SOURCE, INC.). The inhibition rate was calculated according to the following formula. [formula]

IL-4 production [1] = test: Test 1: inhibition of IL-4 production in human T-cell strain ATL-16T(-) stimulated with PMA (R&D Systems EIA); settings: ATL-16T(-) 1×10^6 cells/0.5 ml/well, 20 nM PMA, 48 hours, read-out: Inhibition rate of IL-4 production; for inhibition at 10 µM: 10^-5 M; for inhibition at 1 µM: 10^-6 M; for inhibition at 0.1 µM: 10^-7 M; for inhibition at 0.01 µM: 10^-8 M
Procedure: Test 1: Test on the inhibition of IL-4 production
(§1) Into individual wells of a 48-well microplate, the human T-cell strain ATL-16T(-) was poured at a concentration of 1×10^6 cells/0.5 ml/well (n=3), followed by the addition of a stimulator (20 nM of PMA) and a medicament at the same time. The resulting mixture was incubated in 5% CO2 at 37° C. for 48 hours. After incubation, 100 μl of the supernatant were collected and subjected to measurement by a human IL-4 EIA kit (R&D SYSTEMS, INC.). The inhibition rate was calculated according to the following formula. [formula]

IL-4 production [2] = test: Test 2: inhibition of IL-4 production in human T-cell strain ATL-16T(-) stimulated with PMA (Bio Source EIA); settings: ATL-16T(-) 5×10^5 cells/0.5 ml/well, 20 nM PMA, 48 hours, read-out: Inhibition rate of IL-4 production; for inhibition at 10 µM: 10^-5 M; for inhibition at 1 µM: 10^-6 M; for inhibition at 0.1 µM: 10^-7 M; for inhibition at 0.01 µM: 10^-8 M
Procedure: Test 2: Test on the inhibition of IL-4 production
as §1, with “5×10^5” for “1×10^6”, “50” for “100”, “(BIO SOURCE,” for “(R&D SYSTEMS,”

With `COc1cnc(/C=C/C(=O)c2ccccc2)cc1OC(=O)c1ccccc1` [Ex. 43, 4-benzoyloxy-5-methoxy-2-(3-oxo-3-phenyl-1-propenyl)pyridine] the inhibition at 1 µM (IL-5 production) was 61.4%, the inhibition at 10 µM (IL-4 production [1]) was 80.8% and the inhibition at 1 µM (IL-4 production [1]) was 72.6%. The inhibition at 0.1 µM (IL-4 production [1]) was 70.3% and the inhibition at 0.01 µM (IL-4 production [1]) was 35.5%.

Work on `CCOC(=O)COc1cc(/C=C/C(=O)c2ccccc2)ncc1OC` [Ex. 45] yielded an inhibition at 1 µM (IL-5 production) of 64.3%, an inhibition at 10 µM (IL-4 production [1]) of 89.5% and an inhibition at 1 µM (IL-4 production [1]) of 86.4%. It also gave an inhibition at 0.1 µM (IL-4 production [1]) of 80.1% and an inhibition at 0.01 µM (IL-4 production [1]) of 74%.

`CCCCOc1cc(/C=C/C(=O)c2ccccc2)ncc1OC` [Ex. 46, 4-Butoxy-5-methoxy-2-(3-oxo-3-phenyl-1-propenyl)pyridine] was tested, and the inhibition at 1 µM (IL-5 production) was 86.9%, the inhibition at 10 µM (IL-4 production [1]) was 76.6% and the inhibition at 1 µM (IL-4 production [1]) was 69.1%. For the same molecule, the inhibition at 0.1 µM (IL-4 production [1]) was 33.8% and the inhibition at 0.01 µM (IL-4 production [1]) was 11.8%.

`COc1cnc(/C=C/C(=O)c2ccccc2)cc1OCC(=O)c1ccccc1` [Ex. 47, 5-Methoxy-4-(2-oxo-2-phenylethoxy)-2-(3-oxo-3-phenyl-1-propenyl)pyridine] was tested, and the inhibition at 1 µM (IL-5 production) was 67.2%, the inhibition at 10 µM (IL-4 production [1]) was 113% and the inhibition at 1 µM (IL-4 production [1]) was 89.6%. For the same molecule, the inhibition at 0.1 µM (IL-4 production [1]) was 74.1% and the inhibition at 0.01 µM (IL-4 production [1]) was 58.9%.

Molecule `COCCOCOc1cc(/C=C/C(=O)c2ccccc2)ncc1OC` [Ex. 48, 5-Methoxy-4-methoxyethoxymethoxy-2-(3-oxo-3-phenyl-1-propenyl)pyridine] has an inhibition at 1 µM (IL-5 production) of 62.2%, an inhibition at 10 µM (IL-4 production [1]) of 111% and an inhibition at 1 µM (IL-4 production [1]) of 74.7%. For the same molecule, the inhibition at 0.1 µM (IL-4 production [1]) was 50.1% and the inhibition at 0.01 µM (IL-4 production [1]) was 7.6%.

`COc1cnc(/C=C/C(=O)c2ccccc2[N+](=O)[O-])cc1OC` [Ex. 51, 4,5-Dimethoxy-2-[3-(2-nitrophenyl)-3-oxo-1-propenyl]pyridine] showed an inhibition at 1 µM (IL-5 production) of 93.6%, an inhibition at 10 µM (IL-4 production [2]) of 102% and an inhibition at 1 µM (IL-4 production [2]) of 20.5%. It also gave an inhibition at 0.1 µM (IL-4 production [2]) of 30.1% and an inhibition at 0.01 µM (IL-4 production [2]) of 26.3%.

`COc1cnc(/C=C/C(=O)c2ccc([N+](=O)[O-])cc2)cc1OC` [Ex. 52, 4,5-Dimethoxy-2-[3-(4-nitrophenyl)-3-oxo-1-propenyl]pyridine] was tested, and the inhibition at 1 µM (IL-5 production) was 64.2%, the inhibition at 10 µM (IL-4 production [2]) was 76.1% and the inhibition at 1 µM (IL-4 production [2]) was 48.9%. For the same molecule, the inhibition at 0.1 µM (IL-4 production [2]) was 25.6% and the inhibition at 0.01 µM (IL-4 production [2]) was 11.6%.

Work on `COc1cnc(/C=C/C(=O)c2ccc(Cl)cc2Cl)cc1OC` [Ex. 53, 4,5-Dimethoxy-2-[3-(2,4-dichlorophenyl)-3-oxo-1-propenyl]pyridine] yielded an inhibition at 1 µM (IL-5 production) of 75%, an inhibition at 10 µM (IL-4 production [2]) of 105% and an inhibition at 1 µM (IL-4 production [2]) of 103%. For the same molecule, the inhibition at 0.1 µM (IL-4 production [2]) was 16.7% and the inhibition at 0.01 µM (IL-4 production [2]) was 23.1%.

With `COc1cnc(/C=C/C(=O)c2c(Cl)cccc2Cl)cc1OC` [Ex. 54, 4,5-Dimethoxy-2-[3-(2,6-dichlorophenyl)-3-oxo-1-propenyl]pyridine] the inhibition at 1 µM (IL-5 production) was 93.3%, the inhibition at 10 µM (IL-4 production [2]) was 101% and the inhibition at 1 µM (IL-4 production [2]) was 98.7%. The inhibition at 0.1 µM (IL-4 production [2]) was 24.2% and the inhibition at 0.01 µM (IL-4 production [2]) was 6.1%.

`COc1cnc(/C=C/C(=O)c2c(OC)cccc2OC)cc1O` [Ex. 56, 4-Hydroxy-5-methoxy-2-[3-(2,6-dimethoxyphenyl)-3-oxo-1-propenyl]pyridine] showed an inhibition at 1 µM (IL-5 production) of 79.8%, an inhibition at 10 µM (IL-4 production [2]) of 101% and an inhibition at 1 µM (IL-4 production [2]) of 53.7%. It also gave an inhibition at 0.1 µM (IL-4 production [2]) of 47.1% and an inhibition at 0.01 µM (IL-4 production [2]) of 42.1%.

Work on `CCOC(=O)CCCOc1cc(/C=C/C(=O)c2ccccn2)ncc1OC` [Ex. 70, Ethyl 4-[5-methoxy-2-(3-oxo-3-(2-pyridyl)-1-propenyl]-4-pyridyloxy]butanoate dih ydrochloride] yielded an inhibition at 1 µM (IL-5 production) of 81.4%, an inhibition at 10 µM (IL-4 production [2]) of 65.7% and an inhibition at 1 µM (IL-4 production [2]) of 64.3%. It also gave an inhibition at 0.1 µM (IL-4 production [2]) of 64% and an inhibition at 0.01 µM (IL-4 production [2]) of 60%.

`CCOC(=O)CCCOc1cc(/C=C/C(=O)c2cccnc2)ncc1OC` [Ex. 71, Ethyl 4-[5-methoxy-2-(3-oxo-3-(3-pyridyl)-1-propenyl)-4-pyridyloxy]butanoate dih ydrochloride] gave an inhibition at 1 µM (IL-5 production) of 93.3%, an inhibition at 10 µM (IL-4 production [2]) of 81.2% and an inhibition at 1 µM (IL-4 production [2]) of 69.1%. For the same molecule, the inhibition at 0.1 µM (IL-4 production [2]) was 68.6% and the inhibition at 0.01 µM (IL-4 production [2]) was 61.9%.

`CCOC(=O)CCCOc1cc(/C=C/C(=O)c2ccncc2)ncc1OC` [Ex. 72, Ethyl 4-[5-methoxy-2-(3-oxo-3-(4-pyridyl)-1-propenyl)-4-pyridyloxy]butanoate dih ydrochloride] was tested, and the inhibition at 1 µM (IL-5 production) was 84.1%, the inhibition at 10 µM (IL-4 production [2]) was 75.4% and the inhibition at 1 µM (IL-4 production [2]) was 73.7%. The inhibition at 0.1 µM (IL-4 production [2]) was 69.1% and the inhibition at 0.01 µM (IL-4 production [2]) was 68.8%.

`COc1cnc(/C=C/C(=O)C2CCCCC2)cc1OC` [Ex. 73, 2-(3-Cyclohexyl-3-oxo-1-propenyl)-4,5-dimethoxypyridine hydrochloride] gave an inhibition at 1 µM (IL-5 production) of 82.3%, an inhibition at 10 µM (IL-4 production [2]) of 86.9% and an inhibition at 1 µM (IL-4 production [2]) of 51.3%. For the same molecule, the inhibition at 0.1 µM (IL-4 production [2]) was 21.4% and the inhibition at 0.01 µM (IL-4 production [2]) was 11.9%.

Molecule `COc1cnc(/C=C/C(=O)C2CCCCC2)cc1OC1CCCC1` [Ex. 74, 2-(3-Cyclohexyl-3-oxo-1-propenyl)-4-cyclopentyloxy-5-methoxypyridine] has an inhibition at 1 µM (IL-5 production) of 77.9%, an inhibition at 10 µM (IL-4 production [2]) of 81.6% and an inhibition at 1 µM (IL-4 production [2]) of 32.4%. The inhibition at 0.1 µM (IL-4 production [2]) was 27.7% and the inhibition at 0.01 µM (IL-4 production [2]) was 5.9%.

Molecule `CCOC(=O)CCCOc1cc(/C=C/C(=O)C2CCCCC2)ncc1OC` [Ex. 76, Ethyl 4-[2-(3-cyclohexyl-3-oxo-1-propenyl)-5-methoxy-4-pyridyloxy]butanoatehydrochloride] has an inhibition at 1 µM (IL-5 production) of 91.2%, an inhibition at 10 µM (IL-4 production [2]) of 75.3% and an inhibition at 1 µM (IL-4 production [2]) of 70.5%. For the same molecule, the inhibition at 0.1 µM (IL-4 production [2]) was 69.1% and the inhibition at 0.01 µM (IL-4 production [2]) was 67.7%.

For `CCOC(=O)CCCCOc1cc(/C=C/C(=O)C2CCCCC2)ncc1OC` [Ex. 78, Ethyl 5-[2-(3-cyclohexyl-3-oxo-1-propenyl)-5-methoxy-4-pyridyloxy]pentanoate hydrochloride], the inhibition at 1 µM (IL-5 production) was 63.1%, the inhibition at 10 µM (IL-4 production [2]) was 71.1% and the inhibition at 1 µM (IL-4 production [2]) was 70.8%. It also gave an inhibition at 0.1 µM (IL-4 production [2]) of 68.5% and an inhibition at 0.01 µM (IL-4 production [2]) of 68.2%.

`CCOC(=O)CCCCCOc1cc(/C=C/C(=O)c2c(OC)cccc2OC)ncc1OC` [Ex. 85, Ethyl 6-[5-methoxy-2-(3-(2,6-dimethoxyphenyl)-3-oxo-1-propenyl)-4-pyridyloxy]hexanoate hydrochloride] showed an inhibition at 1 µM (IL-5 production) of 75.7%, an inhibition at 10 µM (IL-4 production [2]) of 86.3% and an inhibition at 1 µM (IL-4 production [2]) of 77.4%. It also gave an inhibition at 0.1 µM (IL-4 production [2]) of 77.1% and an inhibition at 0.01 µM (IL-4 production [2]) of 73.9%.

Work on `CCOC(=O)CCCOc1cc(/C=C/C(=O)c2ccc(OC)cc2OC)ncc1OC` [Ex. 91, Ethyl 4-[5-methoxy-2-(3-(2,4-dimethoxyphenyl)-3-oxo-1-propenyl)-4-pyridyloxy]butanoate hydrochloride] yielded an inhibition at 1 µM (IL-5 production) of 85.8%, an inhibition at 10 µM (IL-4 production [2]) of 93.4% and an inhibition at 1 µM (IL-4 production [2]) of 62.3%. For the same molecule, the inhibition at 0.1 µM (IL-4 production [2]) was 62.2% and the inhibition at 0.01 µM (IL-4 production [2]) was 59.8%.

In the case of `CCOC(=O)CCCCOc1cc(/C=C/C(=O)c2ccccc2OC)ncc1OC` [Ex. 95, Ethyl 5-[5-methoxy-2-(3-(2-methoxyphenyl)-3-oxo-1-propenyl)-4-pyridyloxy]pentanoate hydrochloride], the inhibition at 1 µM (IL-5 production) is reported as 65.6%, the inhibition at 10 µM (IL-4 production [2]) is reported as 105% and the inhibition at 1 µM (IL-4 production [2]) is reported as 60.9%. The inhibition at 0.1 µM (IL-4 production [2]) was 59.2% and the inhibition at 0.01 µM (IL-4 production [2]) was 57.3%.
